From the NIST ThermoML archive (doi:10.1021/je900757k)
± gives the expanded uncertainty stated by the source.

Assay: isobaric coefficient of expansion
Details: Liquid, DSC

CCCCCCCCC [nonane]
isobaric coefficient of expansion
Details	278.15 K	288.15 K	298.15 K	308.15 K	318.15 K	328.15 K	338.15 K	348.15 K
5000 kPa	0.001 ± 2.5e-05 1/K	0.00103 ± 2.5e-05 1/K	0.00105 ± 2.6e-05 1/K	0.00106 ± 2.6e-05 1/K	0.00108 ± 2.7e-05 1/K	0.0011 ± 2.7e-05 1/K	0.00113 ± 2.8e-05 1/K	0.00114 ± 2.8e-05 1/K
10000 kPa	0.000977 ± 2.4e-05 1/K	0.000997 ± 2.4e-05 1/K	0.00101 ± 2.5e-05 1/K	0.00103 ± 2.5e-05 1/K	0.00104 ± 2.6e-05 1/K	0.00106 ± 2.6e-05 1/K	0.00108 ± 2.6e-05 1/K	0.00109 ± 2.7e-05 1/K
15000 kPa	0.000954 ± 2.3e-05 1/K	0.000967 ± 2.4e-05 1/K	0.000984 ± 2.4e-05 1/K	0.000995 ± 2.4e-05 1/K	0.00101 ± 2.5e-05 1/K	0.00102 ± 2.5e-05 1/K	0.00103 ± 2.5e-05 1/K	0.00104 ± 2.5e-05 1/K
20000 kPa	0.000928 ± 2.3e-05 1/K	0.00094 ± 2.3e-05 1/K	0.000955 ± 2.3e-05 1/K	0.000962 ± 2.4e-05 1/K	0.00097 ± 2.4e-05 1/K	0.000984 ± 2.4e-05 1/K	0.000992 ± 2.4e-05 1/K	0.000998 ± 2.4e-05 1/K
25000 kPa	0.000907 ± 2.2e-05 1/K	0.000917 ± 2.2e-05 1/K	0.000927 ± 2.3e-05 1/K	0.000935 ± 2.3e-05 1/K	0.000941 ± 2.3e-05 1/K	0.000949 ± 2.3e-05 1/K	0.00096 ± 2.4e-05 1/K	0.000964 ± 2.4e-05 1/K
30000 kPa	0.000886 ± 2.2e-05 1/K	0.000898 ± 2.2e-05 1/K	0.000903 ± 2.2e-05 1/K	0.000912 ± 2.2e-05 1/K	0.000915 ± 2.2e-05 1/K	0.000921 ± 2.3e-05 1/K	0.000931 ± 2.3e-05 1/K	0.000931 ± 2.3e-05 1/K
35000 kPa	0.000868 ± 2.1e-05 1/K	0.000875 ± 2.1e-05 1/K	0.000878 ± 2.2e-05 1/K	0.000883 ± 2.2e-05 1/K	0.000889 ± 2.2e-05 1/K	0.000892 ± 2.2e-05 1/K	0.000899 ± 2.2e-05 1/K	0.0009 ± 2.2e-05 1/K
40000 kPa	0.000841 ± 2.1e-05 1/K	0.000853 ± 2.1e-05 1/K	0.000856 ± 2.1e-05 1/K	0.00086 ± 2.1e-05 1/K	0.000864 ± 2.1e-05 1/K	0.000865 ± 2.1e-05 1/K	0.000866 ± 2.1e-05 1/K	0.000869 ± 2.1e-05 1/K
45000 kPa	0.000827 ± 2e-05 1/K	0.000836 ± 2e-05 1/K	0.000839 ± 2.1e-05 1/K	0.000838 ± 2.1e-05 1/K	0.000841 ± 2.1e-05 1/K	0.000843 ± 2.1e-05 1/K	0.000846 ± 2.1e-05 1/K	0.000844 ± 2.1e-05 1/K
50000 kPa	0.000811 ± 2e-05 1/K	0.000819 ± 2e-05 1/K	0.000819 ± 2e-05 1/K	0.00082 ± 2e-05 1/K	0.000825 ± 2e-05 1/K	0.000822 ± 2e-05 1/K	0.000825 ± 2e-05 1/K	0.000823 ± 2e-05 1/K
55000 kPa	0.000803 ± 2e-05 1/K	0.000799 ± 2e-05 1/K	0.000803 ± 2e-05 1/K	0.000804 ± 2e-05 1/K	0.000806 ± 2e-05 1/K	0.000803 ± 2e-05 1/K	0.000807 ± 2e-05 1/K	0.000806 ± 2e-05 1/K

CCCCCCCCCCCC [dodecane]
isobaric coefficient of expansion
Details	278.15 K	288.15 K	298.15 K	308.15 K	318.15 K	328.15 K	338.15 K	348.15 K
5000 kPa	0.000913 ± 2.2e-05 1/K	0.000925 ± 2.3e-05 1/K	0.00094 ± 2.3e-05 1/K	0.000953 ± 2.3e-05 1/K	0.000964 ± 2.4e-05 1/K	0.000975 ± 2.4e-05 1/K	0.000989 ± 2.4e-05 1/K	0.000999 ± 2.4e-05 1/K
10000 kPa	0.000896 ± 2.2e-05 1/K	0.000902 ± 2.2e-05 1/K	0.000916 ± 2.2e-05 1/K	0.000924 ± 2.3e-05 1/K	0.000932 ± 2.3e-05 1/K	0.000941 ± 2.3e-05 1/K	0.00095 ± 2.3e-05 1/K	0.000958 ± 2.3e-05 1/K
15000 kPa	0.000874 ± 2.1e-05 1/K	0.000881 ± 2.2e-05 1/K	0.000893 ± 2.2e-05 1/K	0.000899 ± 2.2e-05 1/K	0.000908 ± 2.2e-05 1/K	0.000913 ± 2.2e-05 1/K	0.000918 ± 2.2e-05 1/K	0.000921 ± 2.3e-05 1/K
20000 kPa	0.000854 ± 2.1e-05 1/K	0.00086 ± 2.1e-05 1/K	0.000869 ± 2.1e-05 1/K	0.000874 ± 2.1e-05 1/K	0.000876 ± 2.1e-05 1/K	0.000884 ± 2.2e-05 1/K	0.000888 ± 2.2e-05 1/K	0.000891 ± 2.2e-05 1/K
25000 kPa	0.000838 ± 2.1e-05 1/K	0.000842 ± 2.1e-05 1/K	0.000848 ± 2.1e-05 1/K	0.00085 ± 2.1e-05 1/K	0.000851 ± 2.1e-05 1/K	0.000859 ± 2.1e-05 1/K	0.000863 ± 2.1e-05 1/K	0.000863 ± 2.1e-05 1/K
30000 kPa	0.000821 ± 2e-05 1/K	0.000826 ± 2e-05 1/K	0.000827 ± 2e-05 1/K	0.000831 ± 2e-05 1/K	0.000831 ± 2e-05 1/K	0.000835 ± 2e-05 1/K	0.000838 ± 2.1e-05 1/K	0.000837 ± 2.1e-05 1/K
35000 kPa	0.000805 ± 2e-05 1/K	0.000806 ± 2e-05 1/K	0.000807 ± 2e-05 1/K	0.00081 ± 2e-05 1/K	0.000809 ± 2e-05 1/K	0.000813 ± 2e-05 1/K	0.000815 ± 2e-05 1/K	0.000813 ± 2e-05 1/K
40000 kPa	0.000786 ± 1.9e-05 1/K	0.00079 ± 1.9e-05 1/K	0.000788 ± 1.9e-05 1/K	0.000792 ± 1.9e-05 1/K	0.000787 ± 1.9e-05 1/K	0.000791 ± 1.9e-05 1/K	0.000788 ± 1.9e-05 1/K	0.00079 ± 1.9e-05 1/K
45000 kPa	0.000772 ± 1.9e-05 1/K	0.000778 ± 1.9e-05 1/K	0.000775 ± 1.9e-05 1/K	0.000773 ± 1.9e-05 1/K	0.000768 ± 1.9e-05 1/K	0.000774 ± 1.9e-05 1/K	0.000773 ± 1.9e-05 1/K	0.00077 ± 1.9e-05 1/K
50000 kPa	0.00076 ± 1.9e-05 1/K	0.000761 ± 1.9e-05 1/K	0.00076 ± 1.9e-05 1/K	0.000755 ± 1.8e-05 1/K	0.000754 ± 1.8e-05 1/K	0.000757 ± 1.9e-05 1/K	0.000754 ± 1.8e-05 1/K	0.000753 ± 1.8e-05 1/K
55000 kPa	0.000751 ± 1.8e-05 1/K	0.000745 ± 1.8e-05 1/K	0.000744 ± 1.8e-05 1/K	0.000745 ± 1.8e-05 1/K	0.000739 ± 1.8e-05 1/K	0.000742 ± 1.8e-05 1/K	0.00074 ± 1.8e-05 1/K	0.000737 ± 1.8e-05 1/K

CCCCCCCCCCCCC [tridecane]
isobaric coefficient of expansion
Details	288.15 K	298.15 K	308.15 K	318.15 K	328.15 K	338.15 K	348.15 K
5000 kPa	0.00088 ± 2.2e-05 1/K	0.000891 ± 2.2e-05 1/K	0.000905 ± 2.2e-05 1/K	0.000919 ± 2.3e-05 1/K	0.000936 ± 2.3e-05 1/K	0.000958 ± 2.3e-05 1/K	0.00098 ± 2.4e-05 1/K
10000 kPa	0.00086 ± 2.1e-05 1/K	0.000868 ± 2.1e-05 1/K	0.00088 ± 2.2e-05 1/K	0.000892 ± 2.2e-05 1/K	0.000903 ± 2.2e-05 1/K	0.000917 ± 2.2e-05 1/K	0.000935 ± 2.3e-05 1/K
15000 kPa	0.00084 ± 2.1e-05 1/K	0.00085 ± 2.1e-05 1/K	0.000858 ± 2.1e-05 1/K	0.000865 ± 2.1e-05 1/K	0.00087 ± 2.1e-05 1/K	0.000882 ± 2.2e-05 1/K	0.000896 ± 2.2e-05 1/K
20000 kPa	0.000827 ± 2e-05 1/K	0.000828 ± 2e-05 1/K	0.000835 ± 2e-05 1/K	0.000838 ± 2.1e-05 1/K	0.000844 ± 2.1e-05 1/K	0.000853 ± 2.1e-05 1/K	0.000863 ± 2.1e-05 1/K
25000 kPa	0.000811 ± 2e-05 1/K	0.000812 ± 2e-05 1/K	0.000814 ± 2e-05 1/K	0.000818 ± 2e-05 1/K	0.00082 ± 2e-05 1/K	0.000827 ± 2e-05 1/K	0.000833 ± 2e-05 1/K
30000 kPa	0.000796 ± 1.9e-05 1/K	0.000799 ± 2e-05 1/K	0.000796 ± 1.9e-05 1/K	0.000799 ± 2e-05 1/K	0.0008 ± 2e-05 1/K	0.000801 ± 2e-05 1/K	0.000807 ± 2e-05 1/K
35000 kPa	0.000777 ± 1.9e-05 1/K	0.000782 ± 1.9e-05 1/K	0.000781 ± 1.9e-05 1/K	0.000781 ± 1.9e-05 1/K	0.000782 ± 1.9e-05 1/K	0.000783 ± 1.9e-05 1/K	0.000784 ± 1.9e-05 1/K
40000 kPa	0.000772 ± 1.9e-05 1/K	0.000771 ± 1.9e-05 1/K	0.000765 ± 1.9e-05 1/K	0.000763 ± 1.9e-05 1/K	0.000761 ± 1.9e-05 1/K	0.000761 ± 1.9e-05 1/K	0.000756 ± 1.9e-05 1/K
45000 kPa	0.000754 ± 1.8e-05 1/K	0.000755 ± 1.8e-05 1/K	0.00075 ± 1.8e-05 1/K	0.000748 ± 1.8e-05 1/K	0.000745 ± 1.8e-05 1/K	0.000741 ± 1.8e-05 1/K	0.000741 ± 1.8e-05 1/K
50000 kPa	0.000744 ± 1.8e-05 1/K	0.000744 ± 1.8e-05 1/K	0.000735 ± 1.8e-05 1/K	0.000734 ± 1.8e-05 1/K	0.000728 ± 1.8e-05 1/K	0.000728 ± 1.8e-05 1/K	0.000723 ± 1.8e-05 1/K
55000 kPa	0.000722 ± 1.8e-05 1/K	0.000725 ± 1.8e-05 1/K	0.000718 ± 1.8e-05 1/K	0.000718 ± 1.8e-05 1/K	0.000714 ± 1.7e-05 1/K	0.000714 ± 1.7e-05 1/K	0.000709 ± 1.7e-05 1/K
